Experimental data from US8604075B2, “Methods and compositions for improving cognitive function” (The Johns Hopkins University, priority 2008, dated 2013).

Assays:
[1] = tested on: memory-impaired aged rats; conditions: chronic subcutaneous administration, cited from earlier work
[2] = 100 mg/kg/day, chronic subcutaneous administration; cited from earlier work
[3] = tested on: Age-Impaired (AI) Long-Evans rats; experiment: Morris Water Maze (MWM) retention trial, spatial memory of aged-impaired rats; assay type: in vivo, rat; conditions: retention trial 24 hours after last training trial
Procedure: FIG. 2 depicts the effects of administering levetiracetam on the spatial memory retention of six aged-impaired rats (AI) in a Morris Water Maze (MWM) test. Three treatment conditions were employed: vehicle control, levetiracetam (5 mg/kg/day) and levetiracetam (10 mg/kg/day). The AI rats were trained for two consecutive days, with a one-time treatment prior to the training trials per day. 24 hours later, the AI rats were tested. The time the AI rats, 24 hours after treatment with the different conditions and two days of training, spent swimming in the target quadrant or the target annulus in a memory retention trial is used as a measure of spatial memory retention. The target quadrant refers to the quadrant of the maze (which is a circular pool) where the escape platform is placed during the training trials. The target annulus refers to the exact location of the escape platform during the training trials.
The MWM apparatus consists of a large, circular pool (diameter 1.83 m; height, 0.58 m) filled with water (27° C.) that is made opaque through the addition of non-toxic pigment or some other substance. In the typical “hidden platform” version of the test, rats are trained to find a camouflaged white escape platform (height, 34.5 cm) that is positioned in the center of one quadrant of the maze about 1.0 cm below the water surface. This platform can be retracted to the bottom of the tank or raised to its normal position from outside the maze during behavioral testing. The location of the platform remains constant from trial to trial. […] The behavior of a rat in the pool is recorded by a camera that is suspended 2.5 m above the center of the pool. […]
The MWM protocol is optimized for sensitivity to the effects of aging on cognition and for measures of reliable individual differences within the aged population of out-bred Long-Evans rats (Gallagher et al. Behav. Neurosci. 107:618-626, (1993)). […] At the completion of the protocol using the hidden platform, rats are assessed for cue learning using the visible platform. […]

aged-impaired (AI) rats = experiment: Radial Arm Maze (RAM) task with one-hour delay, spatial memory retention of aged-impaired rats; assay type: in vivo, rat; conditions: 30-40 minutes before trial, ten AI rats
Procedure: FIG. 3 depicts the effects of administering levetiracetam on the spatial memory retention of ten aged-impaired rats (AI) in an eight-arm Radial Arm Maze (RAM) test. Six treatment conditions were employed: vehicle control, levetiracetam (1.25 mg/kg/day), levetiracetam (2.5 mg/kg/day), levetiracetam (5 mg/kg/day), levetiracetam (10 mg/kg/day) and levetiracetam (20 mg/kg/day). In the RAM task used, there was a one-hour delay between presentation of a subset of arms (5 arms available and 3 arms blocked) and completion of the eight-arm win-shift task (eight arms available). Rats were pre-treated 30-40 minutes before daily trials with a one-time drug/control treatment. The number of errors made by the rats after the delay was used as a measure of spatial memory retention. Errors were defined as instances when rats entered an arm from which food had already been retrieved in the pre-delay component of the trial or when rats re-visited an arm in the post-delay session that had already been visited. […]
The effects of levetiracetam on the spatial memory retention of aged-impaired (AI) rats were assessed in a Radial Arm Maze (RAM) behavioral task using vehicle control and five different dosage levels of levetiracetam (1.25 mg/kg/day, 2.5 mg/kg/day, 5 mg/kg/day, 10 mg/kg/day and 20 mg/kg/day). […]

SMILES | treatment of age-related cognitive impairment ([1]; 50 mg/kg/day) | performance in a memory test ([1]; 100 mg/kg/day) | blood total valproate level [2] [μg/ml plasma] | time spent in the target quadrant, performance compared with vehicle ([3]; 5 mg/kg/day i.p.) | time spent in the target annulus ([3]; 10 mg/kg/day i.p.) | time spent in the target quadrant ([3]; 10 mg/kg/day i.p., vehicle approximately 25%) | average no. of errors ± standard error of the mean (SEM) (aged-impaired (AI) rats; 5 mg/kg/day i.p., vehicle 2.00±0.42, p=0.057) | average no. of errors ± SEM (aged-impaired (AI) rats; 10 mg/kg/day i.p., vehicle 2.00±0.42, p=0.042)
CCCC(CCC)C(=O)O [sodium valproate, 2-propylpentanoate] | not effective | significantly improved | 10 |  |  |  |  | 
CC[C@@H](C(N)=O)N1CCCC1=O [levetiracetam, (2S)-2-(2-oxopyrrolidin-1-yl) butanamide] |  |  |  | did not significantly improve | effectivness of the 10 mg/kg/day levetiracetam treatment was also seen | approximately 35 % of total swimming time | 0.75±0.32 | 0.80±0.27
